In patent US11440907B1 (Merck Patent GmbH, priority 2018, dated 2022):

How the values were obtained:
Type in all cases: cell-based
[1] = tested on: β-catenin-TCF-mediated reporter transcription activity in Colo 205 cells; test: Colo 205 reporter assay (TCF/LEF promoter-driven firefly luciferase); conditions: Homo sapiens; Colo 205 TCF/LEF luciferase reporter, 5 hours after compound addition, 384 well; read-out: Colo205 IC50
[2] = tested on: XBP1(u)-luciferase splicing reporter in HepG2 hepatoma cells; test: HepG2 XBP1 reporter assay (XBP1(u)-Luc); conditions: Homo sapiens; for EC50: 6 hours after compound addition, Table 3, read-out: XBP1-luc HepG2 1 EC50; for IC50: 6 h, six hours after addition of compound
[3] = tested on: NCI-H929 (Multiple myeloma cells); test: Cell viability (ATPLite) in NCI-H929; conditions: Homo sapiens, 96 hours
Experimental: Cells were removed from liquid nitrogen storage, thawed and expanded in appropriate growth media. Once expanded, cells were seeded in 384-well tissue culture treated plates at 500 cells per well. After 24 hours, cells were treated for either 0 hours or treated for 96 hours with a testing compound (at the concentrations of 100 nM and 2 uM). At the end of either 0 hours or 96 hours, cell status was analyzed using ATPLite (Perkin Elmer) to assess the biological response of cells to the testing compound.

SMILES | IC50 [1] | EC50 [2] | IC50 [2] | IC50 [3]
Cc1cc(N2CCCOCC2c2ccc(NC(=O)C3(C)COC3)cc2Cl)nc(N)n1 (racemic) [I-282, (+/−)-N-(4-(4-(2-amino-6-methylpyrimidin-4-yl)-1,4-oxazepan-3-yl)-3-chlorophenyl)-3-methyloxetane-3-carboxamide] | 300 to 1000 nM | 600 to 2000 nM | – | –
Cc1cc(N2CCCCC[C@H]2c2ccccc2Br)nc(N)n1 (single isomer, unassigned) [I-3] | < 300 nM | < 600 nM | – | –
COc1ccccc1[C@H]1CCCCCN1c1cc(C)nc(N)n1 (single isomer, unassigned) [I-11] | < 300 nM | 2000 to 5000 nM | – | –
Cc1cc(N2CCCCC[C@H]2c2ccccc2Cl)nc(N)n1 (single isomer, unassigned) [I-14] | < 300 nM | < 600 nM | – | –
COc1cc(S(C)(=O)=O)ccc1[C@@H]1CCCCCN1c1cc(C)nc(N)n1 (single isomer, unassigned) [I-98, 4-[2-(2-methoxy-4-methylsulfonyl-phenyl)azepan-1-yl]-6-methyl-pyrimidin-2-amine] | 300 to 1000 nM | < 600 nM | – | –
Cc1cc(N2CCCOCC2c2cc(NCCO)ccc2Cl)nc(N)n1 (single isomer, unassigned) [I-237] | < 300 nM | < 600 nM | – | –
Cc1cc(N2CCCOC[C@@H]2c2cc(NCCO)ccc2Cl)nc(N)n1 (single isomer, unassigned) [I-253] | < 300 nM | < 600 nM | – | –
Cc1cc(N2CCCOC[C@@H]2c2ccc(OC[C@@H](C)O)cc2Cl)nc(N)n1 (single isomer, unassigned) [I-265] | < 300 nM | < 600 nM | – | –
CC(=O)Nc1cc([C@H]2COCCCN2c2cc(C)nc(N)n2)c(Cl)cc1F (single isomer, unassigned) [I-271] | 300 to 1000 nM | < 600 nM | – | –
Cc1cc(N2CCCOC[C@@H]2c2ccc(OCS(C)(=O)=O)cc2Cl)nc(N)n1 [D-1] | – | – | 600 to 2000 nM | ≥ 25000 nM
Cc1cc(N2CCCOC[C@H]2c2ccc(OCS(C)(=O)=O)cc2Cl)nc(N)n1 [D-2] | – | – | < 600 nM | < 1000 nM
Cc1cc(N2CCCOC[C@@H]2c2ccc(S(=O)(=O)C3CCC3)cc2Cl)nc(N)n1 [D-3] | – | – | 600 to 2000 nM | ≥ 25000 nM
COc1cc(F)c(F)cc1[C@H]1COCCCN1c1cc(C)nc(N)n1 [D-4] | – | – | < 600 nM | ≥ 25000 nM
COc1cc(F)c(F)cc1[C@@H]1COCCCN1c1cc(C)nc(N)n1 [D-5] | – | – | 600 to 2000 nM | 1000 to 10000 nM
Cc1cc(N2CCCOC[C@@H]2c2ccc(NC(=O)CCO)cc2Cl)nc(N)n1 [D-6] | – | – | 600 to 2000 nM | 1000 to 10000 nM
Cc1cc(N2CCCOC[C@H]2c2ccc(NC(=O)CCO)cc2Cl)nc(N)n1 [D-7] | – | – | 600 to 2000 nM | < 1000 nM
Cc1cc(N2CCCOC[C@@H]2c2ccc(NC(=O)C(F)F)cc2Cl)nc(N)n1 [D-8] | – | – | 600 to 2000 nM | ≥ 25000 nM
Cc1cc(N2CCCOC[C@@H]2c2cc3c(cc2Cl)NCCC3)nc(N)n1 [D-9] | – | – | < 600 nM | < 1000 nM
Cc1cc(N2CCCOC[C@@H]2c2cc(N)c(C(F)(F)F)cc2Cl)nc(N)n1 [D-10] | – | – | < 600 nM | < 1000 nM
Cc1cc(N2CCCOCC2c2cc(OC(F)F)c(Cl)cc2Cl)nc(N)n1 [D-11] | – | – | 2000 to 5000 nM | 10000 to 25000 nM
CCC(=O)Nc1cc(Cl)c(C2COCCCN2c2cc(C)nc(N)n2)cc1C [D-12] | – | – | 600 to 2000 nM | 1000 to 10000 nM
Cc1cc(N2CCCOCC2c2cc(C)c(N3CCC(C)(O)CC3)cc2Cl)nc(N)n1 [D-13] | – | – | 600 to 2000 nM | ≥ 25000 nM
Cc1cc(N2CCCOC[C@@H]2c2cc3c(cc2Cl)N(C)CC3)nc(N)n1 [D-14] | – | – | < 600 nM | < 1000 nM
Cc1cc(N2CCCCCC2c2ccccc2Br)nc(N)n1 (stereo not drawn) [I-69] | 300 to 1000 nM | < 600 nM | – | –

SMILES | IC50 [1] | EC50 [2] | IC50 [2] | IC50 [3]
COc1ccccc1C1CCCCCN1c1cc(C)nc(N)n1 (stereo not drawn) [I-124] | < 300 nM | 600 to 2000 nM | – | –
Cc1cc(N2CCCOCC2c2cc(N3CC[C@H](O)C3)ccc2Cl)nc(N)n1 (stereo partly drawn) [I-234, (3S)-1-[3-[4-(2-amino-6-methyl-pyrimidin-4-yl)-1,4-oxazepan-3-yl]-4-chloro-phenyl]pyrrolidin-3-ol] | 300 to 1000 nM | < 600 nM | – | –
Cc1cc(N2CCCOC[C@@H]2c2ccc(NCC3(C)COC3)cc2Cl)nc(N)n1 [I-240, 4-[(3S)-3-[2-chloro-4-[(3-methyloxetan-3-yl)methylamino]phenyl]-1,4-oxazepan-4-yl]-6-methyl-pyrimidin-2-amine] | < 300 nM | < 600 nM | – | –
Cc1cc(N2CCCOC[C@@H]2c2ccc(N3CCC(C)(O)CC3)cc2Cl)nc(N)n1 [I-242, (5)-1-(4-(4-(2-amino-6-methylpyrimidin-4-yl)-1,4-oxazepan-3-yl)-3-chlorophenyl)-4-methylpiperidin-4-ol] | < 300 nM | < 600 nM | – | –
Cc1cc(N2CCCCCC2c2ccccc2Cl)nc(N)n1 (stereo not drawn) [I-243] | < 300 nM | < 600 nM | – | –
Cc1cc(N2CCCOC[C@@H]2c2cc(Br)ccc2Cl)nc(N)n1 [I-245, 4-[(3S)-3-(5-bromo-2-chloro-phenyl)-1,4-oxazepan-4-yl]-6-methyl-pyrimidin-2-amine] | 300 to 1000 nM | < 600 nM | – | –
Cc1cc(N2CCCOC[C@@H]2c2ccc(NC3CN(C)C3)cc2Cl)nc(N)n1 [I-246, 4-[(3S)-3-[2-chloro-4-[(1-methylazetidin-3-yl)amino]phenyl]-1,4-oxazepan-4-yl]-6-methyl-pyrimidin-2-amine] | < 300 nM | < 600 nM | – | –
Cc1cc(N2CCCOC[C@@H]2c2ccc(NCC(C)(C)O)cc2Cl)nc(N)n1 [I-247, 1-[4-[(3S)-4-(2-amino-6-methyl-pyrimidin-4-yl)-1,4-oxazepan-3-yl]-3-chloro-anilino]-2-methyl-propan-2-ol] | < 300 nM | < 600 nM | – | –
Cc1cc(N2CCCOC[C@@H]2c2ccc(NC3CC3)cc2Cl)nc(N)n1 [I-248, 4-[(3S)-3-[2-chloro-4-(cyclopropylamino)phenyl]-1,4-oxazepan-4-yl]-6-methyl-pyrimidin-2-amine] | < 300 nM | < 600 nM | – | –
Cc1cc(N2CCCOC[C@@H]2c2ccc(NC3CN(C(=O)OC(C)(C)C)C3)cc2Cl)nc(N)n1 [I-256, Tert-butyl 3-[4-[(3S)-4-(2-amino-6-methyl-pyrimidin-4-yl)-1,4-oxazepan-3-yl]-3-chloro-anilino]azetidine-1-carboxylate] | < 300 nM | < 600 nM | – | –
Cc1cc(N2CCCOC[C@@H]2c2ccc(NC3CNC3)cc2Cl)nc(N)n1 [I-257, 4-[(3S)-3-[4-(azetidin-3-ylamino)-2-chloro-phenyl]-1,4-oxazepan-4-yl]-6-methyl-pyrimidin-2-amine] | 300 to 1000 nM | < 600 nM | – | –
Cc1cc(N2CCCOC[C@@H]2c2cc(NC3COC3)ccc2Cl)nc(N)n1 [I-258, 4-[(3S)-3-[2-chloro-5-(oxetan-3-ylamino)phenyl]-1,4-oxazepan-4-yl]-6-methyl-pyrimidin-2-amine] | < 300 nM | < 600 nM | – | –
Cc1cc(N2CCCOC[C@@H]2c2ccc(N3CC4(COC4)C3)cc2Cl)nc(N)n1 [I-259, 4-[(3S)-3-[2-chloro-4-(2-oxa-6-azaspiro[3.3]heptan-6-yl)phenyl]-1,4-oxazepan-4-yl]-6-methyl-pyrimidin-2-amine] | < 300 nM | < 600 nM | – | –
Cc1cc(N2CCCOC[C@@H]2c2ccc(N3CC4(CCO4)C3)cc2Cl)nc(N)n1 [I-260, 4-[(3S)-3-[2-chloro-4-(1-oxa-6-azaspiro[3.3]heptan-6-yl)phenyl]-1,4-oxazepan-4-yl]-6-methyl-pyrimidin-2-amine] | < 300 nM | < 600 nM | – | –
Cc1cc(N2CCCOC[C@@H]2c2ccc(N3CC(C)(O)C3)cc2Cl)nc(N)n1 [I-261, (S)-1-(4-(4-(2-amino-6-methylpyrimidin-4-yl)-1,4-oxazepan-3-yl)-3-chlorophenyl)-3-methylazetidin-3-ol] | < 300 nM | < 600 nM | – | –
CC(=O)N1CC(Nc2ccc([C@H]3COCCCN3c3cc(C)nc(N)n3)c(Cl)c2)C1 [I-262, (S)-1-(3-((4-(4-(2-amino-6-methylpyrimidin-4-yl)-1,4-oxazepan-3-yl)-3-chlorophenyl)amino)azetidin-1-yl)ethan-1-one] | < 300 nM | < 600 nM | – | –
Cc1cc(N2CCCOC[C@@H]2c2ccc(NCC3(O)CCC3)cc2Cl)nc(N)n1 [I-263, 1-[[4-[(3S)-4-(2-amino-6-methyl-pyrimidin-4-yl)-1,4-oxazepan-3-yl]-3-chloro-anilino]methyl]-cyclobutanol] | < 300 nM | < 600 nM | – | –
Cc1cc(N2CCCOC[C@@H]2c2ccc(NC3(C)COC3)cc2Cl)nc(N)n1 [I-266, 4-[(3S)-3-[2-chloro-4-[(3-methyloxetan-3-yl)amino]phenyl]-1,4-oxazepan-4-yl]-6-methyl-pyrimidin-2-amine] | < 300 nM | < 600 nM | – | –
Cc1cc(N2CCCOC[C@@H]2c2ccc(N3CCN(C)CC3)cc2Cl)nc(N)n1 [I-275, (S)-4-[3-[2-chloro-4-(4-methylpiperazin-1-yl)phenyl]-1,4-oxazepan-4-yl]-6-methyl-pyrimidin-2-amine] | 300 to 1000 nM | < 600 nM | – | –
COc1ccc(F)cc1[C@@H]1CCCCCN1c1cc(C)nc(N)n1 [I-285] | 300 to 1000 nM | 2000 to 5000 nM | – | –
COc1c(F)cccc1C1CCCCCN1c1cc(C)nc(N)n1 (stereo not drawn) [I-287] | 300 to 1000 nM | ≥ 5000 nM | – | –
Cc1cc(N2CCCOCC2c2ccc(NC3COC3)cc2Cl)nc(N)n1 (stereo not drawn) [I-302] | < 300 nM | < 600 nM | – | –
COCC(OC)c1ccc(C2COCCCN2c2cc(C)nc(N)n2)c(Cl)c1 (stereo not drawn) [I-307] | < 300 nM | < 600 nM | – | –
Cc1cc(N2CCCOCC2c2ccc(NC(=O)C(C)(C)O)cc2Cl)nc(N)n1 (stereo not drawn) [I-308] | < 300 nM | < 600 nM | – | –
